Consider 2 compounds from US6592911B2, “(−)-Olivil as antioxidant which is obtained from a new natural source namely Stereospermum personatum” (Council of Scientific and Industrial Research, priority 2001, dated 2003).

The assay can be described thus: In vitro free radical (DPPH) scavenging antioxidant potency. It is filed as biochemical. Conditions: for 50% Radical scavenging concentration of compounds, Concentration: DPPH radical 500 μM in ethanol, tris-HCl buffer pH 7.4, 45 minutes in dark, absorbency at 517 nm, triplicate. As to the method:
In Vitro Evaluation of Free Radical Scavenging Antioxidant Potency
Antioxidant activity of the compounds was tested for its capacity/potency to scavenge most widely used free radical, 1,1-diphenyl-2-picryl hyrazyl radical (DPPH). […] 200 μl of test compounds were reconstituted to 1 ml in tris-HCl buffer (pH 7.4). Equal volume of 500 μM of DPPH radical dissolved in ethanol was reacted with this. After incubation for 45 minutes in dark, the absorbency at 517 nm was recorded. Percent radical scavenging activity was calculated accordingly. All the readings were taken in triplicate.
In general terms: Loss of DPPH colour is used to gauge radical scavenging.

For `COc1cc(C[C@]2(O)CO[C@@H](c3ccc(O)c(OC)c3)[C@@H]2CO)ccc1O` [(−)-Olivil], the “50% Radical scavenging concentration of compounds, Concentration” value was determined as 22.24 µg/mL. Moreover, the “antioxidant activity compared with reference drugs Probucol and alpha-tocopherol” value (comparison in words) is “better than the above mentioned reference drugs”. Regarding `Cc1c(C)c2c(c(C)c1O)CCC(C)(CCCC(C)CCCC(C)CCCC(C)C)O2` (stereo not drawn) [DL α-Tocopherol, reference compound], the “50% Radical scavenging concentration of compounds, Concentration” value stood at 47.80 µg/mL.
